According to patent US10034886B2, “GLP-1 receptor modulators” (Celgene International II SÀRL, priority 2014, dated 2018):

target: T1, GLP-1R (Homo sapiens, UniProt P43220); assay: EC20 GLP-1(9-36) PAM cAMP assay: dose response of compound in the presence of fixed concentration of GLP-1(9-36); assay type: cell-based; conditions: GLP-1R CRE-bla CHO-K1 cells, compound dose response with fixed concentration of GLP-1(9-36), read-out: EC20 GLP-1(9-36) PAM EC50
T1 construct: host or cells: GLP-1R CRE-bla CHO-K1 cells
T1 sequence (P43220 24-463): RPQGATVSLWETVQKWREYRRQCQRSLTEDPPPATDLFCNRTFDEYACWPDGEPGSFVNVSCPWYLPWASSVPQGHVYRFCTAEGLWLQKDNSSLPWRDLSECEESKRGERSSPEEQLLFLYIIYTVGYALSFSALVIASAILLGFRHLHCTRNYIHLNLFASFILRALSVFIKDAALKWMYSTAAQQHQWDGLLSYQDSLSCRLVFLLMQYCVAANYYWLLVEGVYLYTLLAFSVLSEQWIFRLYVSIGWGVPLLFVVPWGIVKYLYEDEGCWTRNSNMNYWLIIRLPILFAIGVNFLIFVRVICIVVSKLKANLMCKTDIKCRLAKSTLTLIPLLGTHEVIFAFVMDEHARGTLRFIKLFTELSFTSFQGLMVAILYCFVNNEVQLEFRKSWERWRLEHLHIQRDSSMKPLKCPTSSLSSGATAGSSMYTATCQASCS
T1 sequence (P01275 100-127 partner limits assumed): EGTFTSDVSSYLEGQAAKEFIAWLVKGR
Outline: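 Positive allosteric modulation read as cAMP accumulation: compound titrations (12 points) combined with an EC20 level of GLP-1(9-36) on CHO-K1 GLP-1R CRE-bla cells, IBMX present, 30 min, 37 °C, pH 7.4 buffer. Luminescence converted to cAMP via standards; non-linear fit gave EC50 and Emax.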

SMILES	EC50
Cc1ccc(-c2ccc(-c3ccc(-c4cnc(-c5ccc(C[C@H](NC(=O)c6ccc(C(C)(C)C)s6)C(=O)N6CC(C(=O)O)C6)cc5)nc4)c(F)c3)cc2)cc1 [Compound 1214]	2500 to 5000 nM
CCc1ccc(C(=O)N[C@@H](Cc2ccc(-c3ncc(-c4ccc(OCCCC(C)C)cc4)cn3)cc2)C(=O)N2CC(C(=O)O)C2)cc1 [Compound 1228]	800 to 2500 nM
COc1ccc(C(=O)N[C@@H](Cc2ccc(-c3ncc(-c4ccc(OCCCC(C)C)cc4)cn3)cc2)C(=O)N2CC(C(=O)O)C2)cc1 [Compound 1229]	2500 to 5000 nM
CCOc1ccc(C(=O)N[C@@H](Cc2ccc(-c3ncc(-c4ccc(OCCCC(C)C)cc4)cn3)cc2)C(=O)N2CC(C(=O)O)C2)cc1 [Compound 1230]	800 to 2500 nM
CC(C)CCCOc1ccc(-c2cnc(-c3ccc(C[C@H](NC(=O)c4ccc(C(C)(C)C)nc4)C(=O)N4CC(C(=O)O)C4)cc3)nc2)cc1 [Compound 1231]	800 to 2500 nM
CCCc1ccc(C(=O)N[C@@H](Cc2ccc(-c3ncc(-c4ccc(OCCCC(C)C)cc4)cn3)cc2)C(=O)N2CC(C(=O)O)C2)cc1 [Compound 1232]	800 to 2500 nM
CC(C)CCCOc1ccc(-c2cnc(-c3ccc(C[C@H](NC(=O)c4ccc(C5CC5)cc4)C(=O)N4CC(C(=O)O)C4)cc3)nc2)cc1 [Compound 1233]	800 to 2500 nM
CC(C)CCCOc1ccc(-c2cnc(-c3ccc(C[C@H](NC(=O)c4ccc(CC(C)C)s4)C(=O)N4CC(C(=O)O)C4)cc3)nc2)cc1 [Compound 1234]	2500 to 5000 nM
CCCOc1ccc(C(=O)N[C@@H](Cc2ccc(-c3ncc(-c4ccc(OCCCC(C)C)cc4)cn3)cc2)C(=O)N2CC(C(=O)O)C2)cc1 [Compound 1235]	2500 to 5000 nM
CC(C)CCCOc1ccc(-c2cnc(-c3ccc(C[C@H](NC(=O)c4ccc(CC(C)C)cc4)C(=O)N4CC(C(=O)O)C4)cc3)nc2)cc1 [Compound 1236]	800 to 2500 nM
CCC(C)(C)c1ccc(C(=O)N[C@@H](Cc2ccc(-c3ncc(-c4ccc(OCCCC(C)C)cc4)cn3)cc2)C(=O)N2CC(C(=O)O)C2)cc1 [Compound 1237]	2500 to 5000 nM
CC(C)CCCOc1ccc(-c2cnc(-c3ccc(C[C@H](NC(=O)c4ccc(OC(C)C)cc4)C(=O)N4CC(C(=O)O)C4)cc3)nc2)cc1 [Compound 1238]	800 to 2500 nM
COc1cc(C(=O)N[C@@H](Cc2ccc(-c3ncc(-c4ccc(OCCCC(C)C)cc4)cn3)cc2)C(=O)N2CC(C(=O)O)C2)ccc1C(C)(C)C [Compound 1239]	800 to 2500 nM
CCCc1ccc(C(=O)N[C@@H](Cc2ccc(-c3ncc(-c4ccc(OCCCC(C)C)cc4)cn3)cc2)C(=O)N2CC(C(=O)O)C2)s1 [Compound 1240]	800 to 2500 nM
CCc1ccc(C(=O)N[C@@H](Cc2ccc(-c3ncc(-c4ccc(OCCCC(C)C)cc4)cn3)cc2)C(=O)N2CC(C(=O)O)C2)s1 [Compound 1241]	800 to 2500 nM
CC(C)CCCOc1ccc(-c2cnc(-c3ccc(C[C@H](NC(=O)c4ccn(C(C)(C)C)c4)C(=O)N4CC(C(=O)O)C4)cc3)nc2)cc1 [Compound 1242]	800 to 2500 nM
CCCCOc1ccc(C(=O)N[C@@H](Cc2ccc(-c3ncc(-c4ccc(OCCCC(C)C)cc4)cn3)cc2)C(=O)N2CC(C(=O)O)C2)cc1 [Compound 1243]	800 to 2500 nM
CC(C)CCCOc1ccc(-c2cnc(-c3ccc(C[C@H](NC(=O)Cc4csc(C(C)(C)C)n4)C(=O)N4CC(C(=O)O)C4)cc3)nc2)cc1 [Compound 1244]	2500 to 5000 nM
CCc1ccc(C(=O)N[C@@H](Cc2ccc(-c3ncc(-c4ccc(OCCCC(C)C)cc4)cn3)cc2)C(=O)N2CC(C(=O)O)C2)nc1 [Compound 1245]	2500 to 5000 nM
C[C@@H](NC(=O)[C@H](Cc1ccc(-c2ncc(/C=C/CCCc3ccccc3)cn2)cc1)NC(=O)c1ccc(C(C)(C)C)s1)C(=O)O [Compound 1247]	800 to 2500 nM
C[C@@H](NC(=O)[C@H](Cc1ccc(-c2ncc(/C=C/c3cccc(F)c3)cn2)cc1)NC(=O)c1ccc(C(C)(C)C)s1)C(=O)O [Compound 1248]	5000 to 10000 nM
C[C@@H](NC(=O)[C@H](Cc1ccc(-c2ncc(/C=C/c3ccc(F)cc3)cn2)cc1)NC(=O)c1ccc(C(C)(C)C)s1)C(=O)O [Compound 1249]	2500 to 5000 nM

More lines, now with the values ahead:

EC50	SMILES
< 800 nM	CC(C)(C)c1ccc(C(=O)N[C@@H](Cc2ccc(-c3ncc(-c4ccc(-c5ccc(F)cc5)cc4F)cn3)cc2)C(=O)N2CC(C(=O)O)C2)s1 [Compound 1213]
< 800 nM	CC(C)(C)c1ccc(C(=O)N[C@@H](Cc2ccc(-c3ncc(-c4ccc(-c5cccc(OC(F)(F)F)c5)cc4F)cn3)cc2)C(=O)N2CC(C(=O)O)C2)s1 [Compound 1215]
< 800 nM	CC(C)(C)c1ccc(C(=O)N[C@@H](Cc2ccc(-c3ncc(-c4ccc(-c5ccc(C(F)(F)F)c(F)c5F)cc4F)cn3)cc2)C(=O)N2CC(C(=O)O)C2)s1 [Compound 1216]
< 800 nM	CC(C)(C)c1ccc(C(=O)N[C@@H](Cc2ccc(-c3ncc(-c4ccc(-c5ccc(C(F)(F)F)c(F)c5)cc4F)cn3)cc2)C(=O)N2CC(C(=O)O)C2)s1 [Compound 1217]
< 800 nM	CC(C)(C)c1ccc(C(=O)N[C@@H](Cc2ccc(-c3ncc(-c4ccc(-c5ccc(C(F)(F)F)cc5)cc4F)cn3)cc2)C(=O)N2CC(C(=O)O)C2)s1 [Compound 1218]
< 800 nM	Cc1cc(-c2ccc(-c3cnc(-c4ccc(C[C@H](NC(=O)c5ccc(C(C)(C)C)s5)C(=O)N5CC(C(=O)O)C5)cc4)nc3)c(F)c2)ccc1OC(F)(F)F [Compound 1219]
< 800 nM	CC(C)c1ccc(-c2ccc(-c3cnc(-c4ccc(C[C@H](NC(=O)c5ccc(C(C)(C)C)s5)C(=O)N5CC(C(=O)O)C5)cc4)nc3)c(F)c2)cc1 [Compound 1220]
< 800 nM	CC(C)Cc1ccc(-c2ccc(-c3cnc(-c4ccc(C[C@H](NC(=O)c5ccc(C(C)(C)C)s5)C(=O)N5CC(C(=O)O)C5)cc4)nc3)c(F)c2)cc1 [Compound 1221]
< 800 nM	CC(C)(C)c1ccc(C(=O)N[C@@H](Cc2ccc(-c3ncc(-c4ccc(-c5ccc(C(F)(F)F)cc5F)cc4F)cn3)cc2)C(=O)N2CC(C(=O)O)C2)s1 [Compound 1222]
< 800 nM	CC(C)(C)c1ccc(C(=O)N[C@@H](Cc2ccc(-c3ncc(-c4ccc(-c5ccccc5C(F)(F)F)cc4F)cn3)cc2)C(=O)N2CC(C(=O)O)C2)s1 [Compound 1223]
< 800 nM	CC(C)(C)c1ccc(C(=O)N[C@@H](Cc2ccc(-c3ncc(-c4ccc(-c5ccccc5OC(F)(F)F)cc4F)cn3)cc2)C(=O)N2CC(C(=O)O)C2)s1 [Compound 1224]
< 800 nM	Cc1cc(-c2ccc(-c3cnc(-c4ccc(C[C@H](NC(=O)c5ccc(C(C)(C)C)s5)C(=O)N5CC(C(=O)O)C5)cc4)nc3)c(F)c2)ccc1C(F)(F)F [Compound 1225]
< 800 nM	CCCCc1ccc(-c2ccc(-c3cnc(-c4ccc(C[C@H](NC(=O)c5ccc(C(C)(C)C)s5)C(=O)N5CC(C(=O)O)C5)cc4)nc3)c(F)c2)cc1 [Compound 1226, (S)-1-(2-(5-(tert-butyl)thiophene-2-carboxamido)-3-(4-(5-(4′-butyl-3-fluoro-[1,1′-biphenyl]-4-yl)pyrimidin-2-yl)phenyl)propanoyl)azetidine-3-carboxylic acid]
800 to 2500 nM	CC(C)CCCOc1ccc(-c2cnc(-c3ccc(C[C@H](NC(=O)c4ccc(C(C)C)cc4)C(=O)N4CC(C(=O)O)C4)cc3)nc2)cc1 [Compound 1227]
< 800 nM	CC(C)CCCOc1ccc(-c2cnc(-c3ccc(C[C@H](NC(=O)c4ccc(S(C)(=O)=O)s4)C(=O)N4CC(C(=O)O)C4)cc3)nc2)cc1 [Compound 1246]
